According to patent US4383113A, “Agricultural sulfonamides” (E. I. Du Pont de Nemours and Company, priority 1981, dated 1983):

Assays:
[1] = system: alfalfa; assay: Test D pre-emergence on soil; format: in vivo; conditions: 1/8 kg/ha
Text: (§1) The high herbicidal activity of one of the compounds from within the scope of the invention is evident from the results obtained in this test. The experiment concerned pre-emergence applications on soil. The containers used were 25 cm diameter plastic pots filled with Fallsington silt loam. One set of pots was planted to weeds the seeds of which were uniformly mixed with the top 1.2 cm layer of soil. The species selected were: johnsongrass (Sorghum halepense), barnyardgrass (Echinochloa crusgalli), crabgrass (Digitaria sanguinalis), giant foxtail (Setaria faberii), velvetleaf (Abutilon theophrasti), jimsonweed (Datura stramonium), mustard (Brassica arvensis) and pigweed (Amaranthus retroflexus). Another set of pots was planted to the following crops with from one to four species per pot: corn (planting depth 3.7 cm), cotton, soybeans, sunflower, Clinton oats, wheat, Black Valentine beans, rice, sorghum, peas, flax and peanuts (all at 2.5 cm depth), cucumbers, cabbage, alfalfa, safflower, sugarbeets, tomato, spinach, barley and Kentucky bluegrass (all at 1.2 cm depth). Immediately after planting, the test chemical was applied to the soil surfaces dissolved in a non-phytotoxic solvent. One pot from the weed phase and one of each of the crop species were left untreated for the purpose of comparison. The treated and untreated pots were promptly watered with approximately 4 mm of simulated rainfall and then held in a greenhouse for several weeds. Visual weed and crop response ratings were made 28 days after treatment utilizing the rating system as described above for test procedure A. The data are given in Table XV.

[2] = system: wheat; assay: Test D pre-emergence on soil; format: in vivo; conditions: 1/8 kg/ha
Text: as §1

[3] = system: grasses; assay: Test D pre-emergence on soil; format: in vivo; conditions: 1/64 kg/ha
Text: as §1

[4] = system: spinach; assay: Test D pre-emergence on soil; format: in vivo; conditions: 1/8 kg/ha
Text: as §1

[5] = system: sorghum; assay: Test D pre-emergence on soil; format: in vivo; conditions: 1/8 kg/ha
Text: as §1

[6] = system: corn; assay: Test D pre-emergence on soil; format: in vivo; conditions: 1/8 kg/ha
Text: as §1

[7] = system: cabbage; assay: Test D pre-emergence on soil; format: in vivo; conditions: 1/8 kg/ha
Text: as §1

[8] = system: sugarbeet; assay: Test D pre-emergence on soil; format: in vivo, sugarbeets; conditions: 1/8 kg/ha
Text: as §1, with “The treated and untreated pots were promptly watered with approximately 4 mm of simulated rainfall and then held in a greenhouse for several weeds. Visual weed and crop response ratings were made 28 days after treatment utilizing the rating system as described above for test procedure A. The data are given in Table XV.” left out

[9] = system: Ky. bluegrass; assay: Test D pre-emergence on soil; format: in vivo, Kentucky bluegrass; conditions: 1/8 kg/ha
Text: as §1, with “The treated and untreated pots were promptly watered with approximately 4 mm of simulated rainfall and then held in a greenhouse for several weeds. Visual weed and crop response ratings were made 28 days after treatment utilizing the rating system as described above for test procedure A. The data are given in Table XV.” left out

[10] = system: pea; assay: Test D pre-emergence on soil; format: in vivo, peas; conditions: 1/8 kg/ha
Text: as §1, with “The treated and untreated pots were promptly watered with approximately 4 mm of simulated rainfall and then held in a greenhouse for several weeds. Visual weed and crop response ratings were made 28 days after treatment utilizing the rating system as described above for test procedure A. The data are given in Table XV.” left out

[11] = system: Russian thistle; assay: Test E pre-emergence; format: in vivo, Salsola kali
Text: (§2) The containers used were 25 cm diameter plastic pots filled with fertilized and limed Fallsington silt loam. Plantings of the following weed species were made twice, at a 10-day interval: mustard (Brassica arvensis), cocklebur (Xanthium spp.), morningglory (Ipomoea hederacea), cassia (Cassia tora), velvetleaf (Abutilon theophrasti), alfalfa (used as an indicator species), kochia (Kochia scoparia), sesbania (Sesbania exaltata), Russian thistle (Salsola kali), jimsonweed (Datura stramonium),and nutsedge (Cyperus rotundus). In addition, wheat and barley were planted in separate 15 cm diameter plastic pots filled with the same soil at the time of the early planting only. All plantings were treated with the test chemicals dissolved in a non-phytotoxic solvent immediately following completion of the second planting operation. At this time, the wheat was around 15-17.5 cm tall and the barley 12.5 to 15 cm tall, both in the 2-leaf stage of growth. The weed species of the earliest planting date were from 2.5 to 12.5 cm tall. The rates of application selected were 0.004, 0.007, 0.015 and 0.030 kg/ha for the weed phase and 0.12, 0.25 and 0.50 kg/ha for wheat and barley. The post-emergence part of this test was visually rated for plant response 21 days after treatment, and the pre-emergence part 28 days after treatment.

[12] = system: kochia; assay: Test E pre-emergence; format: in vivo, Kochia scoparia
Text: as §2

[13] = system: mustard; assay: Test E pre-emergence; format: in vivo, Brassica arvensis
Text: as §2

[14] = system: morningglory; assay: Test E pre-emergence; format: in vivo, Ipomoea hederacea; conditions: 1/32 kg/ha
Text: as §2

[15] = system: nutsedge; assay: Test E pre-emergence; format: in vivo, Cyperus rotundus
Text: as §2

[16] = system: alfalfa; assay: Test E pre-emergence; format: in vivo
Text: as §2

[17] = system: sesbania; assay: Test E pre-emergence; format: in vivo, Sesbania exaltata; conditions: 1/64 kg/ha
Text: as §2

[18] = system: nutsedge; assay: Test E post-emergence; format: in vivo, Cyperus rotundus
Text: as §2

[19] = system: wheat; assay: Test E post-emergence; format: in vivo; conditions: 1/2 kg/ha
Text: as §2

[20] = system: mustard; assay: Test E post-emergence; format: in vivo, Brassica arvensis
Text: as §2

[21] = system: cocklebur; assay: Test E post-emergence; format: in vivo, Xanthium spp.
Text: as §2

[22] = system: barley; assay: Test E post-emergence; format: in vivo; conditions: 1/2 kg/ha
Text: as §2

[23] = system: purple nutsedge; assay: Test G soil incorporated; format: in vivo, Cyperus rotundus; conditions: .032 kg/ha, low OM
Text: (§3) Purple nutsedge tubers (Cyperus rotundus, L.) were planted about 2 cm deep in Fallsington silt loam (about 1% organic matter from Delaware) and in Flanagan loam (about 4% organic matter) from Illinois. Five tubers were planted in each 10 cm diameter plastic pot. Treatments recorded in Table XVII were applied in three different ways, i.e., soil surface spray, tuber/soil spray and soil incorporated. In surface sprays, the material was sprayed on the firmed soil surface after planting, but before nutsedge emergence. In tuber/soil sprays, the material was sprayed on exposed tubers and subtending soil before the tubers were covered with untreated soil. Soil incorporated treatments were mixed in the covering soil.
(§4) Immediately after treating, the treated pots were misted with about 0.3 cm of water over a 90 minute period and placed in the greenhouse.

[24] = system: purple nutsedge; assay: Test G surface spray; format: in vivo, Cyperus rotundus; conditions: high OM
Text: as §3, §4

[25] = system: dandelion; assay: Test I perennial foliage spray; format: in vivo, Taraxacum officinale
Text: (§5) Five-inch in diameter plastic pots were filled with a 50-50 mixture of Fallsington silt loam soil and sand and seeds of the following planted (one plant species per pot): milkweed vine (Morrenia odorata), plantain (Plantago spp.), burdock (Arctium minus), field bindweed (Convolvulus arvensis), dandelion (Taraxacum officinale), horsenettle (Solanum carolinense), bermudagrass (Cynodon dactylon), quackgrass (Agropyron repens), dallisgrass (Paspalum dilatatum) and johnsongrass (Sorghum halepense). The pots were placed in the greenhouse and the plants grown for several weeks.
(§6) The compound evaluated was diluted with a non-phytotoxic solvent and sprayed on the plant foliage. Untreated and solvent controls were included for comparison. One and eight weeks after treatment, a visual rating of the compound's effects on plant growth were made.

[26] = system: quackgrass; assay: Test I perennial foliage spray; format: in vivo, Agropyron repens
Text: as §5, §6

[27] = system: horsenettle; assay: Test I perennial foliage spray; format: in vivo, Solanum carolinense
Text: as §5, §6

[28] = system: dallisgrass; assay: Test I perennial foliage spray; format: in vivo, Paspalum dilatatum
Text: as §5, §6

[29] = system: milkweed vine; assay: Test I perennial foliage spray; format: in vivo, Morrenia odorata
Text: as §5, §6

[30] = system: johnsongrass; assay: Test I perennial foliage spray; format: in vivo, Sorghum halepense
Text: as §5, §6

[31] = system: bermudagrass; assay: Test I perennial foliage spray; format: in vivo, Cynodon dactylon; conditions: 1 week
Text: as §5, §6

[32] = system: burdock; assay: Test I perennial foliage spray; format: in vivo, Arctium minus
Text: as §5, §6

[33] = system: field bindweed; assay: Test I perennial foliage spray; format: in vivo, Convolvulus arvensis
Text: as §5, §6

[34] = system: plantain; assay: Test I perennial foliage spray; format: in vivo, Plantago spp.
Text: as §5, §6

COC(=O)c1ccccc1S(=O)(=O)NC(=O)Nc1nc(OC)cc(OC)n1 [drawing 586]
response rating [1]: 10C
response rating [2]: 10C
response rating [3]: 6G
response rating [4]: 10C
response rating [5]: 10C
response rating [6]: 10C
response rating [7]: 10C
response rating [8]: 10C
response rating [9]: 10C
response rating [10]: 10C

COc1nc(NC(=O)NS(=O)(=O)c2ccccc2C(=O)OC(C)C)nc(OC)n1 [drawing 587]
response rating ([11]; 1/32 kg/ha): 9C
response rating ([11]; 1/64 kg/ha): 7C
response rating ([11]; 1/128 kg/ha): 7C
response rating ([11]; 1/256 kg/ha): 5C
response rating ([12]; 1/32 kg/ha): 10C
response rating ([12]; 1/64 kg/ha): 10C
response rating ([12]; 1/128 kg/ha): 10C
response rating ([13]; 1/32 kg/ha): 10C
response rating ([13]; 1/64 kg/ha): 10C
response rating ([13]; 1/128 kg/ha): 10C
response rating [14]: 8G
response rating ([15]; 1/64 kg/ha): 9G
response rating ([15]; 1/128 kg/ha): 8G
response rating ([15]; 1/256 kg/ha): 7G
response rating ([16]; 1/64 kg/ha): 5G
response rating ([16]; 1/256 kg/ha): 5G
response rating [17]: 8G

COc1nc(NC(=O)NS(=O)(=O)c2ccccc2C(=O)OC(C)C)nc(OC)n1 [drawing 589]
response rating ([18]; 1/32 kg/ha): 10G
response rating [19]: 2G
response rating ([20]; 1/32 kg/ha): 10C
response rating ([20]; 1/64 kg/ha): 10C
response rating ([20]; 1/128 kg/ha): 10C
response rating ([20]; 1/256 kg/ha): 10C
response rating ([21]; 1/32 kg/ha): 10C
response rating ([21]; 1/64 kg/ha): 10C
response rating ([21]; 1/128 kg/ha): 10C
response rating ([21]; 1/256 kg/ha): 10C

COc1nc(C)nc(NC(=O)NS(=O)(=O)c2ccccc2C(=O)OC(C)C)n1 [drawing 590]
response rating ([18]; 1/32 kg/ha): 10C
response rating ([18]; 1/256 kg/ha): 3G
response rating [22]: 5G
response rating ([20]; 1/32 kg/ha): 10C
response rating ([20]; 1/64 kg/ha): 10C
response rating ([20]; 1/128 kg/ha): 10C
response rating ([20]; 1/256 kg/ha): 10C
response rating ([21]; 1/32 kg/ha): 10C
response rating ([21]; 1/64 kg/ha): 10C
response rating ([21]; 1/128 kg/ha): 10C
response rating ([21]; 1/256 kg/ha): 10C

COC(=O)c1ccccc1S(=O)(=O)NC(=O)Nc1nc(OC)cc(OC)n1 [drawing 607]
response rating after 4 weeks [23]: 10C
response rating after 4 weeks ([24]; .008 kg/ha): 0
response rating after 4 weeks ([24]; .032 kg/ha): 10C

COC(=O)c1ccccc1S(=O)(=O)NC(=O)Nc1nc(C)cc(C)n1 [drawing 611]
plant response rating ([25]; 1 week, 1/4 kg/ha): 0
plant response rating ([25]; 1 week, 1/8 kg/ha): 0
plant response rating ([25]; 8 weeks, 1/4 kg/ha): 10C
plant response rating ([25]; 8 weeks, 1/8 kg/ha): 10C
plant response rating ([26]; 1 week, 1/4 kg/ha): 7C
plant response rating ([26]; 1 week, 1/8 kg/ha): 6C
plant response rating ([26]; 8 weeks, 1/4 kg/ha): 10C
plant response rating ([26]; 8 weeks, 1/8 kg/ha): 10C
plant response rating ([27]; 1 week, 1/4 kg/ha): 1C
plant response rating ([27]; 1 week, 1/8 kg/ha): 0
plant response rating ([27]; 8 weeks, 1/4 kg/ha): 10C
plant response rating ([27]; 8 weeks, 1/8 kg/ha): 5C
plant response rating ([28]; 1 week, 1/4 kg/ha): 6C
plant response rating ([28]; 1 week, 1/8 kg/ha): 6C
plant response rating ([28]; 8 weeks, 1/4 kg/ha): 10C
plant response rating ([29]; 1 week, 1/4 kg/ha): 0
plant response rating ([29]; 1 week, 1/8 kg/ha): 0
plant response rating ([29]; 8 weeks, 1/4 kg/ha): 10C
plant response rating ([29]; 8 weeks, 1/8 kg/ha): 10C
plant response rating ([30]; 1 week, 1/4 kg/ha): 9C
plant response rating ([30]; 1 week, 1/8 kg/ha): 8C
plant response rating ([30]; 8 weeks, 1/4 kg/ha): 10C
plant response rating ([30]; 8 weeks, 1/8 kg/ha): 10C
plant response rating ([31]; 1/4 kg/ha): 6C
plant response rating ([31]; 1/8 kg/ha): 5C
plant response rating ([32]; 1 week, 1/4 kg/ha): 0
plant response rating ([32]; 1 week, 1/8 kg/ha): 0
plant response rating ([32]; 8 weeks, 1/4 kg/ha): 10C
plant response rating ([32]; 8 weeks, 1/8 kg/ha): 4C
plant response rating ([33]; 1 week, 1/4 kg/ha): 2C
plant response rating ([33]; 1 week, 1/8 kg/ha): 0
plant response rating ([33]; 8 weeks, 1/4 kg/ha): 8C
plant response rating ([33]; 8 weeks, 1/8 kg/ha): 7C
plant response rating ([34]; 1 week, 1/4 kg/ha): 0
plant response rating ([34]; 1 week, 1/8 kg/ha): 0
plant response rating ([34]; 8 weeks, 1/4 kg/ha): 10C
plant response rating ([34]; 8 weeks, 1/8 kg/ha): 10C
